Earlier results in patent US20260248820A1, “USES OF HYDROGENATED CANNABIDIOL (H4CBD) AND ADVANCED METABOLIC SYNDROME” (The Regents of the University of California, priority 2022, published 2026).

How the values were obtained:
[1] = tested on: rodents; conditions: cited from earlier work
[2] = tested on: endocannabinoid receptors; conditions: cited from earlier work
[3] = tested on: diet-induced obese (DIO) and non-obese diabetic mice; conditions: cited from earlier work
[4] = clinical; cited from earlier work
[5] = rats without underlying metabolic dysfunction; cited from earlier work
[6] = tested on: PTZ-induced seizure; conditions: rats; cited from earlier work

SMILES | Documented toxicity [1] [mg/kg] | Affinity for the endocannabinoid receptors responsible for cannabis intoxication [2] | Incidence of diabetes [3] | Effects of high doses administered clinically [4] | Body mass gain [5] | Reduction of PTZ-induced seizure frequency and severity [6]
C=C(C)[C@@H]1CCC(C)=C[C@H]1c1c(O)cc(CCCCC)cc1O [CBD, Cannabidiol] | > 600 | little affinity | reduced the incidence of diabetes | anorexic and diarrheal effects | inhibit body mass gain | 
CCCCCc1cc(O)c([C@@H]2C=C(C)CC[C@H]2C(C)C)c(O)c1 [H2CBD, dihydrocannabidiol] |  |  |  |  |  | equal effectiveness to that of CBD
